From US9951065B2 (Gilead Sciences, Inc., priority 2015, dated 2018)
pEC50: −log10 of the molar value.

The compounds below were run against T1, IDO1 (Homo sapiens, UniProt P14902) (assay: Cell-based (HeLa) assay for measurement of IDO1 inhibition (kynurenine levels in supernatant after IFNγ induction)). Conditions: HeLa cells, IFNγ-induced IDO1, kynurenine in supernatant, 48 hour incubation; geometric mean of a minimum of four determinations.
T1 construct: HeLa cells were treated with a test compound in the presence of IFNγ, which induces IDO1 expression; host or cells: H1-HeLa cells, IDO1 induced with IFNγ
T1 sequence (P14902 whole entry): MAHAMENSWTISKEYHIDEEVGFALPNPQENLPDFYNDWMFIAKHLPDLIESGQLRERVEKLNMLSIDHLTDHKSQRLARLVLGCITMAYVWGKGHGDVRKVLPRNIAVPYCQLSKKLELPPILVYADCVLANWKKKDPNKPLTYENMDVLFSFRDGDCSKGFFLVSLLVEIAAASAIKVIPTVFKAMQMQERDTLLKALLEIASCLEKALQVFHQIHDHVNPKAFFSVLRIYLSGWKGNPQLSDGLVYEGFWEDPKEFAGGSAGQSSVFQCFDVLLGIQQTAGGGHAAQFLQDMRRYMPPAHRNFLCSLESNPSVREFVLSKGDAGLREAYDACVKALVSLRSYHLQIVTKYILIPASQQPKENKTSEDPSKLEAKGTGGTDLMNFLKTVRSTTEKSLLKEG
Outline: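 IDO1 activity is read as kynurenine released into the medium, detected with Ehrlich's reagent (p-dimethylaminobenzaldehyde) at 480 nm after TCA treatment. HeLa cells were exposed 48 h to compounds in 0.5% DMSO alongside IFNγ induction. Values normalized to no-IFNγ and IFNγ controls; four-parameter EC50 given as geometric mean of ≥4 determinations.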

SMILES | pEC50
O/N=C(\Nc1ccc(F)c(Cl)c1)c1ccnc2nc(NCCN3CCC(F)(F)C3)[nH]c12 [Example 491, N-(3-chloro-4-fluorophenyl)-2-((2-(3,3-difluoropyrrolidin-1-yl)ethyl)amino)-N′-hydroxy-1H-imidazo[4,5-b]pyridine-7-carboximidamide] | 6.04
NS(=O)(=O)CCNc1nc2nccc(/C(=N/O)Nc3ccc(F)c(Cl)c3)c2[nH]1 [Example 492, N-(3-chloro-4-fluorophenyl)-N′-hydroxy-2-((2-sulfamoylethyl)amino)-1H-imidazo[4,5-b]pyridine-7-carboximidamide] | 5.25
CS(=O)(=O)CCNc1nc2nccc(/C(=N/O)Nc3ccc(F)c(Cl)c3)c2[nH]1 [Example 493, N-(3-chloro-4-fluorophenyl)-N′-hydroxy-2-((2-(methylsulfonyl)ethyl)amino)-1H-imidazo[4,5-b]pyridine-7-carboximidamide] | 5.14
O/N=C(\Nc1ccc(F)c(Cl)c1)c1ccnc2nc(NCc3ncccn3)[nH]c12 [Example 494, N-(3-chloro-4-fluorophenyl)-N′-hydroxy-2-((pyrimidin-2-ylmethyl)amino)-1H-imidazo[4,5-b]pyridine-7-carboximidamide] | < 5.00
